Patent US12714696B2, “Low dose fluralaner compositions for protection against parasitic invertebrate pest” (VIRBAC, priority 2019, dated 2026)
Values joined by “and” are separate entries in the source; they are usually repeats but may differ in a detail not shown here. Equal values may be shown once. Read-outs that look alike come from different tables or passages of the source.

Test: Pharmacokinetics after repeated oral administration of 35 μg/kg of fluralaner in dogs after feeding
Type: in vivo, beagle dogs
Conditions: oral 35 μg/kg Days 0-3, dogs; for concentration at 480 h / concentration at 576 h / concentration at 672 h / AUC(0-inf) / AUC(0-t) / Cmax / half-life: beagle, dog, plasma, po; for concentration at 480 h / concentration at 576 h / concentration at 672 h: 35 μg/kg; for AUC(0-inf) / AUC(0-t) / Cmax / half-life: 35 ug/kg
Method: The first objective of the study was to obtain the pharmacokinetic parameters after repeated oral administration of 35 μg/kg of fluralaner in dogs, 30 to 35 minutes after feeding.
The second objective was to investigate the pharmacodynamics between the fluralaner plasmatic dose and the effectiveness against fleas. • IVP: Investigational Veterinary Product, is pure Fluralaner+DMSO (35 μg/kg on Days 0 to 3 (0.35 mL/kg)) • Control product is DMSO (0.35 mL/kg on Days 0 to 3)
On Days 0, 1, 2 and 3, all dogs assigned to group 2 received the Investigational Veterinary Product. On Days 0 to 3 all dogs in group 1 received the control product at a volume equal to the dogs in group 2. Dogs assigned to group 1 received the control product and served as Placebo controls. The quantity of Investigational Veterinary Product and control product administered was calculated according to the dog's individual body weight measured on Day −1.
Blood samples were taken from all dogs prior to Investigational Veterinary Product treatment or control product administration on Day 0 and on Days 1 (+24 hours), 2 (+48 hours), 3 (+72 hours), 4 (+96 hours), 5 (+120 hours), 10 (+240 hours), 15 (+360 hours), 20 (+480 hours), 24 (+576 hours) and Day 28 (+672 hours).
On days of administration of pre-Investigational Veterinary Product or Control Product, dogs were fed (the same dog food) approximately half of their normal daily ration 30 minutes to 35 minutes prior to administration. Food consumed by the time of administration was calculated and recorded. The remainder of their normal daily ration was fed immediately after administration.
The PK parameters of fluralaner were calculated using a non-compartmental approach.
The following rules were applied for the calculation of the PK parameters: • All the plasma concentrations, validated by the bioanalytical laboratory, were used for the PK analysis. • The actual blood sampling times were used throughout. • Concentrations below the Limit of Quantification (LOQ) value were considered as zero from time zero (pre-dose) up to the time at which the first quantifiable concentration above the LOQ value was observed. Concentrations below the LOQ value between two quantifiable concentrations were considered as missing. Trailing concentrations below the LOQ value were not used in calculations.
Cmax the observed maximum concentration in plasma measured after dosing.
tmax the time at which Cmax was apparent.
λz the terminal rate constant (λz) was estimated by log-linear regression analysis on data points visually assessed, to be on the terminal log-linear phase. For the slope of the terminal elimination phase to be accepted as reliable, the following criteria were used: • the terminal data points were apparently randomly distributed about a single straight line (on visual inspection), • a minimum of three data points, including the last measured data point and excluding Cmax, were available for the regression.
t1/2 the terminal plasma half-life (t1/2) was calculated according to the following equation: […]
AUC0-t the area under the concentration-time curve from time zero (pre-dose) to the time of last quantifiable concentration (t) was calculated using a linear trapezoidal method.
[AUC0-∞=AUC0-t+(Ct/λz)], where Ct was the observed concentration of drug for the last sample on the PK profile in which the drug was detected, and λz was as defined above.
The extrapolated area under the curve, expressed as a percentage of the total area, AUCinf, was also calculated as: Area Extra (%)=(AUC0-∞−AUC0-t)/AUC0-∞*100%.

[1] = n=6, read-out: fluralaner concentration levels, Mean
[2] = n=6, read-out: fluralaner concentration levels, Median
[3] = n=6, read-out: fluralaner concentration levels, Minimum
[4] = read-out: fluralaner concentration levels, individual animal
[5] = n=6, read-out: fluralaner concentration levels, GeoMean
[6] = n=6, read-out: fluralaner concentration levels, Maximum

Cc1cc(C2=NOC(c3cc(Cl)cc(Cl)c3)(C(F)(F)F)C2)ccc1C(=O)NCC(=O)NCC(F)(F)F (stereo not drawn) [fluralaner, Fluralaner]
concentration at 480 h [1]: 22.4 ng/mL | concentration at 480 h [2]: 23.2 ng/mL | concentration at 480 h [3]: 17.1 ng/mL | concentration at 480 h [4]: 25.3 ng/mL | concentration at 576 h [5]: 17.1 ng/mL | concentration at 576 h [6]: 22.2 ng/mL | concentration at 576 h [1]: 17.4 ng/mL | concentration at 576 h [2]: 16.1 ng/mL | concentration at 576 h [3]: 13.3 ng/mL | concentration at 576 h [4]: 17.3 ng/mL | concentration at 672 h [5]: 12.5 ng/mL | concentration at 672 h [6]: 16 ng/mL | concentration at 672 h [1]: 12.8 ng/mL | concentration at 672 h [2]: 12.8 ng/mL | concentration at 672 h [3]: 9.1 ng/mL | concentration at 672 h [4]: 16 ng/mL | AUC(0-inf) (n=6, read-out: AUC 0-inf, GeoMean): 27900 ng·h/mL | AUC(0-inf) (n=6, read-out: AUC 0-inf, Mean): 28100 ng·h/mL | AUC(0-inf) (n=6, read-out: AUC 0-inf, Median): 28300 ng·h/mL | AUC(0-t) (n=6, read-out: AUC 0-t, GeoMean): 23900 ng·h/mL | AUC(0-t) (n=6, read-out: AUC 0-t, Mean): 23900 ng·h/mL | AUC(0-t) (n=6, read-out: AUC 0-t, Median): 24000 ng·h/mL | Cmax (n=6, read-out: Cmax, GeoMean): 84 ng/mL | Cmax (n=6, read-out: Cmax, Mean): 84.4 ng/mL | Cmax (n=6, read-out: Cmax, Median): 87 ng/mL | half-life (n=6, read-out: t½ (terminal half-life), Mean (converted)): 217 h | half-life (n=6, read-out: t½, GeoMean (converted)): 214 h | half-life (n=6, read-out: t½, Median (converted)): 233 h | AUC(0-inf) (read-out: AUC 0-inf, individual animal): 31000 ng·h/mL | AUC(0-t) (read-out: AUC 0-t, individual animal): 25000 ng·h/mL | Cmax (read-out: Cmax, individual animal): 71.8 ng/mL | Cmax (read-out: maximum concentration (Cmax), range): 71.8 to 92.4 ng/mL | half-life (read-out: terminal half-life, range): 155 to 261 h | half-life (read-out: t½, individual animal (converted)): 261 h | AUC 0-inf, individual animal: 26895 ng·h/mL and 31726 ng·h/mL and 29670 ng·h/mL and 23684 ng·h/mL and 25369 ng·h/mL | AUC 0-t, individual animal: 23395 ng·h/mL and 26334 ng·h/mL and 24538 ng·h/mL and 21644 ng·h/mL and 22612 ng·h/mL | AUC extrap, individual animal: 19.5% and 13.0% and 17.0% and 17.3% and 8.6% and 10.9% | Cmax, individual animal: 92.4 ng/mL and 89.4 ng/mL and 76.6 ng/mL and 91.6 ng/mL and 84.5 ng/mL | Lambda z, individual animal: 0.0027 and 0.0030 (2×) and 0.0029 and 0.0045 and 0.0037 | t½, individual animal: 233.3 h and 233.6 h and 235.6 h and 155.2 h and 185.6 h | AUC 0-inf, Maximum (n=6): 31726 ng·h/mL | AUC 0-inf, Minimum (n=6): 23684 ng·h/mL | AUC 0-t, Maximum (n=6): 26334 ng·h/mL | AUC 0-t, Minimum (n=6): 21644 ng·h/mL | AUC extrap, GeoMean (n=6): 13.82% | AUC extrap, Maximum (n=6): 19.5% | AUC extrap, Mean (n=6): 14.38% | AUC extrap, Median (n=6): 15.00% | AUC extrap, Minimum (n=6): 8.6% | Cmax, Maximum (n=6): 92.4 ng/mL | Lambda z, GeoMean (n=6): 0.00324 h⁻¹ | Lambda z, Maximum (n=6): 0.0045 | Lambda z, Mean (n=6): 0.00329 h⁻¹ | Lambda z, Median (n=6): 0.00297 h⁻¹ | Lambda z, Minimum (n=6): 0.0027 h⁻¹ | t½, Maximum (n=6): 261.4 h | t½, Minimum (n=6): 155.2 h
